# Test results: the supplement of paper PMC4862054
# Key:
# Details in all cases: incubation time: 72 h
# [1] = system: CAL-120; test: normalised response (% of control), CellTox Green; higher = less cell death (100 = DMSO, 0 = benzethonium chloride kill control)
# Method in brief: (§1)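 Compound was dispensed into 384-well plates at 5 concentrations in 10-fold steps spanning a 10,000-fold range specific to that compound. Breast cancer cell lines were added as 20 µl suspension and left for 72 h before CellTox Green fluorescence (485/520 nm) and then CellTiter-Glo luminescence, read after 10 min at room temperature. Each reported value is the normalised signal at one concentration, with 0.1 % DMSO set at 100 and a positive kill control at 0 on each plate.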
# [2] = system: HDQ-P1; test: as above
# Method in brief: as §1
# [3] = system: MDA-MB-436; test: as above
# Method in brief: as §1
# [4] = system: HCC1599; test: as above
# Method in brief: as §1
# [5] = system: BT-549; test: as above
# Method in brief: as §1
# [6] = system: BT-474; test: as above
# Method in brief: as §1
# [7] = system: MCF-10A; test: as above
# Method in brief: as §1
# [8] = system: MDA-MB-231; test: as above
# Method in brief: as §1
# [9] = system: HCC1143; test: as above
# Method in brief: as §1
# [10] = system: MFM-223; test: as above
# Method in brief: as §1
# [11] = system: DU-4475; test: as above
# Method in brief: as §1
# [12] = system: CAL-51; test: as above
# Method in brief: as §1
# [13] = system: HCC1937; test: as above
# Method in brief: as §1
# [14] = system: MDA-MB-453; test: as above
# Method in brief: as §1
# [15] = system: Hs578T; test: as above
# Method in brief: as §1
# [16] = system: CAL-85-1; test: as above
# Method in brief: as §1
# [17] = system: CAL-120; test: normalised response (% of control), CellTiter-Glo; higher = more viable cells (100 = DMSO, 0 = benzethonium chloride kill control)
# Method in brief: as §1
# [18] = system: HDQ-P1; test: as above
# Method in brief: as §1
# [19] = system: MDA-MB-468; test: as above
# Method in brief: as §1
# [20] = system: MDA-MB-436; test: as above
# Method in brief: as §1
# [21] = system: CAL-148; test: as above
# Method in brief: as §1
# [22] = system: HCC1599; test: as above
# Method in brief: as §1
# [23] = system: BT-549; test: as above
# Method in brief: as §1
# [24] = system: BT-474; test: as above
# Method in brief: as §1
# [25] = system: MCF-10A; test: as above
# Method in brief: as §1
# [26] = system: MDA-MB-231; test: as above
# Method in brief: as §1
# [27] = system: HCC1143; test: as above
# Method in brief: as §1
# [28] = system: MFM-223; test: as above
# Method in brief: as §1
# [29] = system: DU-4475; test: as above
# Method in brief: as §1
# [30] = system: CAL-51; test: as above
# Method in brief: as §1
# [31] = system: HCC1937; test: as above
# Method in brief: as §1
# [32] = system: SK-BR-3; test: as above
# Method in brief: as §1
# [33] = system: MDA-MB-453; test: as above
# Method in brief: as §1
# [34] = system: Hs578T; test: as above
# Method in brief: as §1
# [35] = system: CAL-85-1; test: as above
# Method in brief: as §1
# [36] = system: CAL-148; test: normalised response (% of control), CellTox Green; higher = less cell death (100 = DMSO, 0 = benzethonium chloride kill control)
# Method in brief: as §1
SMILES,normalised response [1],normalised response [2],normalised response [3],normalised response [4],normalised response [5],normalised response [6],normalised response [7],normalised response [8],normalised response [9],normalised response [10],normalised response [11],normalised response [12],normalised response [13],normalised response [14],normalised response [15],normalised response [16],normalised response [17],normalised response [18],normalised response [19],normalised response [20],normalised response [21],normalised response [22],normalised response [23],normalised response [24],normalised response [25],normalised response [26],normalised response [27],normalised response [28],normalised response [29],normalised response [30],normalised response [31],normalised response [32],normalised response [33],normalised response [34],normalised response [35],normalised response [36]
O=C(O)c1ccc(-c2c[nH]c3ncc(-c4ccccc4)cc23)cc1C1CCCC1 (1000 nM),98.4%,109%,85.1%,90.9%,92.9%,95.8%,103%,86.1%,96.2%,93.1%,96.3%,93.6%,100%,96.7%,92.2%,108%,102%,105%,93.6%,103%,95.6%,102%,100%,89.9%,100%,92.4%,101%,95.6%,91.4%,105%,97%,90.2%,96.8%,94.1%,99.2%,
CC(=O)Nc1ccc(C(=O)Nc2ccccc2N)cc1 [Tacedinaline] (100 nM),101%,76.9%,110%,97.4%,117%,99.1%,,108%,110%,101%,99.2%,103%,115%,105%,92.4%,107%,99.2%,100%,109%,102%,97.2%,126%,106%,105%,93.7%,102%,97.1%,106%,93.6%,114%,102%,95.4%,102%,98.4%,101%,105%
Cc1ccc(C(=O)Nc2ccc(CN3CCN(C)CC3)c(C(F)(F)F)c2)cc1C#Cc1cnc2cccnn12 [Ponatinib] (1 nM),,,,,,,,,,,,,,,,,106%,104%,107%,108%,99.5%,103%,106%,104%,103%,97.2%,97.1%,99.5%,100%,101%,98.4%,99.4%,98.2%,97.3%,108%,
Cn1c(CCCC(=O)O)nc2cc(N(CCCl)CCCl)ccc21 [Bendamustine] (10 nM),,,,,,,,,,,,,,,,,107%,101%,106%,104%,110%,106%,99.3%,111%,110%,103%,107%,106%,111%,100%,102%,110%,107%,103%,102%,
N.N.[Cl][Pt][Cl] [Cisplatin] (0.1 nM),,,,,,,,,,,,,,,,,102%,101%,97.3%,98.2%,85.7%,110%,106%,101%,103%,99.7%,95.2%,96.9%,92%,115%,101%,98.6%,98.9%,102%,97.2%,
